According to patent publication US20230339863A1, “INDAZOLE DERIVATIVES AS CANNABINOID RECEPTOR PARTIAL AGONISTS” (RESEARCH TRIANGLE INSTITUTE, priority 2020, published 2023):

What was measured:
human CB2 = human CB2 (Homo sapiens (Human), UniProt P34972); assay: In vitro cannabinoid receptor activity assay (calcium mobilization, FLIPR) in CHO cells expressing human CB2 and Gαq16; format: cell-based; conditions: for EC50: CHO cells, hCB2, calcium fluorescence, read-out: hCB2 Ca EC50; for hCB2 Ca Span: percentage of the maximum CP55940 signal
Protocol: (§1) In vitro cannabinoid receptor activity assay. Chinese Hamster Ovary (CHO) cells stably expressing either human CB1 or CB2 cDNA and the promiscuous G-protein Gαq16 were transferred to each well of a black Costar 96-well optical bottom plate (Corning Corporation). Each plate was incubated at 37° C. for 24 hr to confluence. The culture media was removed from the plates and cells were subsequently loaded with a fluorescent calcium probe (Calcium 5 dye, Molecular Devices) at a final loading concentration of 2 μM in a HBSS-based buffer containing 20 mM HEPES, 1% BSA and 10 μM Probenecid (Sigma) in a total volume of 225 μl. Cells were incubated at 37° C. for 1 hr and then stimulated with various concentrations of a test agent using a FLIPR Tetra plate-reader, which automatically added the agonist at 10× concentration to each well after reading baseline values for ˜17 sec. Agonist-mediated change in fluorescence (488 nm excitation, 525 nm emission) was monitored in each well at 1 sec intervals for 60 sec and reported for each well. Data were analyzed using Prism software (GraphPad). Non-linear regression analysis was performed to fit data and obtain maximum response (Emax), effective concentration for 50% response (EC50), correlation coefficient (r2) and other parameters. All experiments were performed 3-6 times to ensure reproducibility.
(§2) Reference is made to the following reference, hereby incorporated by reference with regard to such assay, Seltzman, et al., Peripherally Selective Cannabinoid 1 Receptor (CB1R) Agonists for the Treatment of Neuropathic Pain, J Med Chem. 2016 Aug. 25; 59 (16):7525-43. doi: 10.1021/acs.jmedchem.6b00516. Epub 2016 Aug. 10.

human CB1 = human CB1 (Homo sapiens (Human), UniProt P21554); assay: In vitro cannabinoid receptor activity assay (calcium mobilization, FLIPR) in CHO cells expressing human CB1 and Gαq16; format: cell-based; conditions: for EC50: CHO cells, hCB1, calcium fluorescence, read-out: hCB1 Ca EC50; for hCB1 Ca Span: percentage of the maximum CP55940 signal
Protocol: as §1, §2

Row | Structure (SMILES) | EC50 (human CB2) [nM] | hCB2 Ca Span (human CB2) [%] | EC50 (human CB1) [nM] | hCB1 Ca Span (human CB1) [%]
1 | C[C@@H](NC(=O)c1nn(Cc2ccc(F)cc2)c2ccccc12)c1cccc(C(N)=O)c1 [Example 10, N-[(1R)-1-(3-Carbamoylphenyl)ethyl]-1-[(4-fluorophenyl)methyl]-1H-indazole-3-carboxamide] | 660 | 25 | 490 | 19
2 | CC(c1ccc(F)cc1)n1nc(C(=O)NC(C)(C)c2cccc(C(N)=O)c2)c2ccccc21 (stereo not drawn) [Example 14, N-[2-(3-Carbamoylphenyl)propan-2-yl]-1-[1-(4-fluorophenyl)ethyl]-1H-indazole-3-carboxamide] | > 10000 |  | 240 | 76
3 | CC(C)(NC(=O)c1nn(CC2CCC(F)(F)CC2)c2ccccc12)c1cccc(C(N)=O)c1 [Example 15, N-[2-(3-Carbamoylphenyl)propan-2-yl]-1-[(4,4-difluorocyclohexyl)methyl]-1H-indazole-3-carboxamide] | 51 | 38 | 15 | 86
4 | CC(C)(NC(=O)c1nn(CC2CCOCC2)c2ccccc12)c1cccc(C(N)=O)c1 [Example 16, N-[2-(3-Carbamoylphenyl)propan-2-yl]-1-(oxan-4-ylmethyl)-1H-indazole-3-carboxamide] | 63 | 57 | 140 | 92
5 | CCCCCn1nc(C(=O)NC(C)(C)c2cccc(C(N)=O)c2)c2ccccc21 [Example 17, N-[2-(3-Carbamoylphenyl)propan-2-yl]-1-pentyl-1H-indazole-3-carboxamide] | 180 | 43 | 220 | 24
6 | CC(C)(NC(=O)c1nn(CCCCCF)c2ccccc12)c1cccc(C(N)=O)c1 [Example 18, N-[2-(3-Carbamoylphenyl)propan-2-yl]-1-(5-fluoropentyl)-1H-indazole-3-carboxamide] | 84 | 35 | 78 | 27
7 | CC(C)(NC(=O)c1nn(CCCCC(F)(F)F)c2ccccc12)c1cccc(C(N)=O)c1 [Example 19, N-[2-(3-Carbamoylphenyl)propan-2-yl]-1-(5,5,5-trifluoropentyl)-1H-indazole-3-carboxamide] | 480 | 39 | 150 | 64
8 | CC(C)(NC(=O)c1nn(Cc2ccc(F)cc2)c2ccccc12)c1cccc(NC(N)=O)c1 [Example 21, N-{2-[3-(Carbamoylamino)phenyl]propan-2-yl}-1-[(4-fluorophenyl)methyl]-1H-indazole-3-carboxamide] | 160 | 34 | 1600 | 34
9 | CC(C)(NC(=O)c1nn(CC2CCC(F)(F)CC2)c2ccccc12)c1cccc(NC(N)=O)c1 [Example 22, N-{2-[3-(Carbamoylamino)phenyl]propan-2-yl}-1-[(4,4-difluorocyclohexyl)methyl]-1H-indazole-3-carboxamide] | 58 | 51 | 160 | 89
10 | CC(C)(NC(=O)c1nn(CC2CCOCC2)c2ccccc12)c1cccc(NC(N)=O)c1 [Example 23, N-{2-[3-(Carbamoylamino)phenyl]propan-2-yl}-1-(oxan-4-ylmethyl)-1H-indazole-3-carboxamide] | 94 | 61 | 1200 | 91
11 | CCCCCn1nc(C(=O)NC(C)(C)c2cccc(NC(N)=O)c2)c2ccccc21 [Example 24, N-{2-[3-(Carbamoylamino)phenyl]propan-2-yl}-1-pentyl-1H-indazole-3-carboxamide] | 320 | 47 | 1300 | 52
12 | CC(C)(NC(=O)c1nn(CCCCCF)c2ccccc12)c1cccc(NC(N)=O)c1 [Example 25, N-{2-[3-(carbamoylamino)phenyl]propan-2-yl}-1-(5-fluoropentyl)-1H-indazole-3-carboxamide] | 170 | 51 | 570 | 65
13 | CNC(=O)Nc1cccc(C(C)(C)NC(=O)c2nn(CC3CCC(F)(F)CC3)c3ccccc23)c1 [Example 26, 1-[(4,4-Difluorocyclohexyl)methyl]-N-(2-{3-[(methylcarbamoyl)amino]phenyl}propan-2-yl)-1H-indazole-3-carboxamide] | 34 | 61 | 16 | 110
14 | CCCCCn1nc(C(=O)NC(C)(C)c2cccc(NC(=O)NC)c2)c2ccccc21 [Example 27, N-(2-{3-[(Methylcarbamoyl)amino]phenyl}propan-2-yl)-1-pentyl-1H-indazole-3-carboxamide] | 170 | 55 | 100 | 100
15 | CNC(=O)Nc1cccc(C(C)(C)NC(=O)c2nn(CCCCCF)c3ccccc23)c1 [Example 28, 1-(5-Fluoropentyl)-N-(2-{3-[(methylcarbamoyl)amino]phenyl}propan-2-yl)-1H-indazole-3-carboxamide] | 65 | 61 | 30 | 100
16 | CC(C)(NC(=O)c1nn(Cc2ccc(F)cc2)c2ccccc12)C1CCCN(C(N)=O)C1 (stereo not drawn) [Example 29, N-[2-(1-Carbamoylpiperidin-3-yl)propan-2-yl]-1-[(4-fluorophenyl)methyl]-1H-indazole-3-carboxamide] | 46 | 36 | 140 | 75
17 | CC(C)(NC(=O)c1nn(Cc2ccc(F)cc2)c2ccccc12)C1CCN(C(N)=O)CC1 [Example 31, N-[2-(1-Carbamoylpiperidin-4-yl)propan-2-yl]-1-[(4-fluorophenyl)methyl]-1H-indazole-3-carboxamide] | 140 | 57 | 1000 | 64
18 | CC(C)(NC(=O)c1nn(Cc2ccc(F)cc2)c2ccccc12)C1CCN(CC(N)=O)CC1 [Example 32, N-{2-[1-(Carbamoylmethyl)piperidin-4-yl]propan-2-yl}-1-[(4-fluorophenyl)methyl]-1H-indazole-3-carboxamide] | 29 | 62 | 40 | 110
19 | CC(C)(NC(=O)c1cn(Cc2ccc(F)cc2)c2ccccc12)c1cccc(C(N)=O)c1 [Example 33, N-[2-(3-Carbamoylphenyl)propan-2-yl]-1-[(4-fluorophenyl)methyl]-1H-indole-3-carboxamide] | 160 | 30 | 870 | 25
